Source: US7910739B2, “Acetylcholinesterase dual inhibitors” (priority 2003, dated 2011)
Read-outs that look alike come from different tables or passages of the source.

How the values were obtained:
[1] = biological target: T1, AChE (from bovine erythrocytes) (Bos taurus, UniProt P23795); assay: biochemical; assay type: biochemical
T1 construct: 0.02 unit AChE (Sigma Chemical Co. from bovine erythrocytes); purchased Sigma Chemical Co; host or cells: bovine erythrocytes (natural source)
Procedure: Acetylcholinesterase (AChE) Inhibition (from Bovine Erythrocytes)
AChE inhibitory activity was evaluated at 30° C. by the colorimetric method reported by Ellman [Ellman, G. L.; Courtney, K. D.; Andres, B.; Featherstone, R. M. Biochem. Pharmacol. 1961, 7, 88-95]. The assay solution consisted of 0.1 M phosphate buffer pH 8, 0.3 mM 5,5′-dithiobis(2-nitrobenzoic acid) (DTNB, Ellman's reagent), 0.02 unit AChE (Sigma Chemical Co. from bovine erythrocytes), and 0.5 mM acetylthiocholine iodide as the substrate of the enzymatic reaction. The compounds tested were added to the assay solution and pre incubated with the enzyme for 5 min at 30° C. After that period, the substrate was added. […] The compound concentration producing 50% of AChE inhibition (IC50) was determined.

BuChE from human serum = biological target: T2, BuChE from human serum (Homo sapiens, UniProt P06276); assay: Butyrylcholinesterase (BuChE) inhibition, Ellman colorimetric method; assay type: biochemical
T2 construct: 0.01 unit BuChE from human serum; from tissue; host or cells: human serum
T2 sequence (P06276 29-602): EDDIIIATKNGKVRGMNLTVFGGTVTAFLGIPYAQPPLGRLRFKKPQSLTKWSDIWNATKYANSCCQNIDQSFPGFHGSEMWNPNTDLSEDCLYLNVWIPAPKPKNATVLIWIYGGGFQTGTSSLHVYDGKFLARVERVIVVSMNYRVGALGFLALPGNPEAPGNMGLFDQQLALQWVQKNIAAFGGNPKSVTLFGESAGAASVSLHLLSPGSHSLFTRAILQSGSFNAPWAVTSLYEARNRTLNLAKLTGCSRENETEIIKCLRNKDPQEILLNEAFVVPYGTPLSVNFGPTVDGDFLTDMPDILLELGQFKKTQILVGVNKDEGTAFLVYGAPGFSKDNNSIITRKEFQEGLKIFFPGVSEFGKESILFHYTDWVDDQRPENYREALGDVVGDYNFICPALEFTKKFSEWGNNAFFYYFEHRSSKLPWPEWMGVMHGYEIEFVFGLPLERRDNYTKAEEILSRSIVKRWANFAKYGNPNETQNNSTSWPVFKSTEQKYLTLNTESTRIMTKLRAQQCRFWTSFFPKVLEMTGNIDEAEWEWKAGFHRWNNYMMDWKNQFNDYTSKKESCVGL
Procedure: Butyrylcholinesterase (BuChE) Inhibition (from Human Serum)
BuChE inhibitory activity was evaluated at 30° C. by the colorimetric method reported by Ellman. The assay solution consisted of 0.01 unit BuChE from human serum, 0.1 M sodium phosphate buffer pH 8, 0.3 mM 5,5′-dithiobis(2-nitrobenzoic acid) (DTNB, Ellman's reagent), and 0.5 mM butyrylthiocholine iodide as the substrate of the enzymatic reaction. Enzyme activity was determined by measuring the absorbance at 405 nm during 5 minutes with a microplate reader Digiscan 340T. The tested compounds were preincubated with the enzyme for 10 minutes at 30° C. The reaction rate was calculated with, at least, triplicate measurements. The IC50 is defined as the concentration of each compound that reduces a 50% the enzymatic activity with respect to that without inhibitor.

[2] = test system: human neuroblastoma cell line SH-SY5Y; assay: Toxicity measurement (LDH release); assay type: cell-based; conditions: 24 hours exposure
Procedure: The cytotoxicity effect of the molecules was tested in the human neuroblastoma cell line SH-SY5Y. These cells were cultured in 96-well plates in DULBECCO'S MOD EAGLE medium, supplemented with 10% fetal bovine serum and 1% penicillin/streptomycin, and grown in a 5% CO2 humidified incubator at 37° C.
The cells were plated at 10^4 cells for each well, at least, 48 hours before the toxicity measure. Cells were exposed for 24 hours to the compounds at different concentrations (from 10^−5 to 10^−9), quantitative assessment of cell death was made by measurement of the intracellular enzyme lactate dehydrogenase (LDH) (citotoxicity detection kit, Roche). The quantity of LDH was evaluated in a microplate reader Anthos 2010, at 492 and 620 nm. Controls were taken as 100% viability.

AChE peripheral site = AChE peripheral site (Bos taurus, UniProt P23795); assay: Propidium competition (fluorescence); assay type: binding; conditions: 10 μM AchE, 20 μM propidium iodide, pH 8.0
Chain of AChE peripheral site (P23795 other isoform, or with tags, fused parts or gaps): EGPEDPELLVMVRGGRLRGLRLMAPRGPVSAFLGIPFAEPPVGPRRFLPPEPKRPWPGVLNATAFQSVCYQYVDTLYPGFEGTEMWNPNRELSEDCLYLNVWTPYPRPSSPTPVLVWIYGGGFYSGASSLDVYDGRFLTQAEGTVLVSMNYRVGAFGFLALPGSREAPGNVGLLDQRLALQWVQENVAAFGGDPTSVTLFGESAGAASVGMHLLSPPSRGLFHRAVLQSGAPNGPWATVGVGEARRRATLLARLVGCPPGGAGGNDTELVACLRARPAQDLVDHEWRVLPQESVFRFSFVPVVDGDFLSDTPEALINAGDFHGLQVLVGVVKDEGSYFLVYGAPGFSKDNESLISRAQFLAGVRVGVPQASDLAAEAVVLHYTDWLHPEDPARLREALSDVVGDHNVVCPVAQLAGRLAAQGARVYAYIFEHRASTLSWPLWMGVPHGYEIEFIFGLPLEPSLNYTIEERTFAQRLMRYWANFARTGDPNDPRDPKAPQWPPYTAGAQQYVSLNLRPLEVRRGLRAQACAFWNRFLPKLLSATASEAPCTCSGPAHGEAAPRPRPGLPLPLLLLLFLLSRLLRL
Procedure: Fluorescence was measured in a Fluostar optima plate reader (BMG). Measurements were carried out in 100 μl solution volume, in 96-well plates. The buffer used wad 1 mM Tris/HCl, pH 8.0. 10 μM AchE was incubated, at least 6 hours, with the molecules at different concentrations. 20 μM propidium iodide was added 10 min before fluorescence measurement. The excitation wavelength was 485 nm, and that of emission, 620 nm.

[3] = biological target: T3, β-amyloid-huAChE aggregation complex (Homo sapiens, UniProt P22303); assay: Inhibition of β-amyloid aggregation (Congo Red binding); assay type: biochemical; conditions: Aβ1-40 0.1 mM, Aβ:huAChE 200:1, 48 hours
T3 construct: purchased Sigma-Aldrich (huAChE); rPeptide (Aβ1-40)
T3 sequence (P22303 32-614, one chain of several): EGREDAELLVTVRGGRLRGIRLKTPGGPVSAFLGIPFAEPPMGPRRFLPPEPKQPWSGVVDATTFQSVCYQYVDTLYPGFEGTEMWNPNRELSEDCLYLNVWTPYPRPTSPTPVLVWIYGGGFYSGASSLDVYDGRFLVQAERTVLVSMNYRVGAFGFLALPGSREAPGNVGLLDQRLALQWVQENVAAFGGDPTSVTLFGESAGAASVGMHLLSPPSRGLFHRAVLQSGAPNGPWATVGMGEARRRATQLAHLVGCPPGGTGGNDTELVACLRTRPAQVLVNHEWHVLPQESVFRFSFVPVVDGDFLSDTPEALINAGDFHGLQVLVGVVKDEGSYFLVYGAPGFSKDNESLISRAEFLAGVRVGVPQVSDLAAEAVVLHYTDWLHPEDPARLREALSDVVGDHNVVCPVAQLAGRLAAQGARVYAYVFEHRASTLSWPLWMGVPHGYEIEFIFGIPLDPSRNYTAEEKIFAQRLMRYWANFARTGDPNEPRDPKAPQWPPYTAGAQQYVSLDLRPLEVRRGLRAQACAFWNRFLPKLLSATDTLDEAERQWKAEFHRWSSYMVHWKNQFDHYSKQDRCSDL
Procedure: Inhibition of β-Amyloid Aggregation
The generation of AChE-Aβ complexes were carried out as described previously [Alvarez, A et al. J. Neurosci., 1998, 18, 3213-3223; Muñoz, F. J.; Inestrosa, N. C. FEBS Let., 1999, 450, 205-209]. Stock solutions of Aβ1-40 (rPeptide, Georgia USA) at 3.5 mM were dissolved in PBS (pH 7.4) after HFIP treatment to obtain monomeric starting material, according to manufacture's recommendations. For co-incubation experiments, 0.1 mM of peptide was mixed with human recombinant acetylcholinesterase (huAchE, Sigma-Aldrich), in the same buffer at molar ratio Aβ:huAChE 200:1, and stirred for 48 hours in a microtiter plate at room temperature. The fibrils obtained were characterized by Congo Red (CR) binding.
For the inhibition of β-amyloid aggregation, the compounds tested were used at the IC50 defined in the previous paragraph of the biological evaluation, 50 μM propidium iodide was used as reference [Inestrosa, N. C et al., J. Neuron, 1996, 16, 881-891].
To quantify the amount of fibrils aggregated, the binding to CR was done as described [Klunk, W E.; Pettegrew, J W.; Abraham, D J. J. Hystochem Cytochem., 1989, 8, 1293-1297]. Briefly, 5.5 μl aliquot of the aggregation mixture was added to 132 μl of a 25 μM CR solution (100 mM phosphate buffer pH 7.4, 150 mM NaCl), and incubated for 30 minutes at room temperature. Absorbance was measured at 480 and 540 nm and the molarity of aggregates calculated by CR(M)=(A540/25295)−(A480/46306).

[4] = AChE from bovine erythrocytes, 30° C., pH 8, read-out: IC50 AChE
[5] = BuChE from human serum, 30° C., pH 8, read-out: IC50 BuChE

T1 sequence (P23795 other isoform, or with tags, fused parts or gaps): as the sequence (P23795 other isoform, or with tags, fused parts or gaps) above

| Compound | IC50 [1, 4] | IC50 (BuChE from human serum; [5]) | Toxicity [2] | Propidium competition (AChE peripheral site) | reduction in the β-amyloid-huAChE aggregation complex ([3]; compound used at its IC50) | IC50 [1] | IC50 (BuChE from human serum) | reduction in the β-amyloid-huAChE aggregation complex ([3]; 50 μM propidium iodide as reference) |
| --- | --- | --- | --- | --- | --- | --- | --- | --- |
| Clc1ccc2c(NCCc3c[nH]c4ccccc34)c3c(nc2c1)CCCC3 [Comparative Example, N-[2-3(Indolyl)ethyl]-6-chlorotacrine, reference compound] | 537 nM |  |  |  |  |  |  |  |
| O=C(CCc1c[nH]c2ccccc12)NCCCCCNc1c2c(nc3ccccc13)CCCC2 [Compound 2, 3-(1H-Indol-3-yl)-N-[5-(1,2,3,4-tetrahydro-acridin-9-ylamino)-pentyl]-propionamide] | 70 nM | 1 nM | >100 µM | 10 µM |  |  |  |  |
| O=C(CCc1c[nH]c2ccccc12)NCCCCCCNc1c2c(nc3cc(Cl)ccc13)CCCC2 [Compound 3] | 0.02 nM | 2.9 nM | 100 µM | 1000 µM | 15% |  |  |  |
| O=C(CCc1c[nH]c2ccccc12)NCCCCCCCNc1c2c(nc3cc(Cl)ccc13)CCCC2 [Compound 4, N-[7-(6-Chloro-1,2,3,4-tetrahydro-acridin-9-ylamino)-heptyl]-3-(1H-indol-3-yl)-propionamide] | 0.06 nM | 0.1 nM | 10 µM | 10 µM |  |  |  |  |
| O=C(CCc1c[nH]c2ccccc12)NCCCCCCCCNc1c2c(nc3cc(Cl)ccc13)CCCC2 [Compound 5, N-[8-(6-Chloro-1,2,3,4-tetrahydro-acridin-9-ylamino)-octyl]-3-(1H-indol-3-yl)propionamide] | 0.5 nM | 5.7 nM | 10 µM | 10 µM |  |  |  |  |
| O=C(CCc1c[nH]c2ccccc12)NCCCCCCCCCNc1c2c(nc3cc(Cl)ccc13)CCCC2 [Compound 6, N-[9-(6-Chloro-1,2,3,4-tetrahydro-acridin-9-ylamino)-nonyl]-3-(1H-indol-3-yl)-propionamide] |  | 9.6 nM | >100 µM | >100 µM |  |  |  |  |
| O=C(CCc1c[nH]c2ccccc12)NCCCCCCCCCCNc1c2c(nc3cc(Cl)ccc13)CCCC2 [Compound 7, N-[10-(6-Chloro-1,2,3,4-tetrahydro-acridin-9-ylamino)-decyl]-3-(1H-indol-3-yl)-propionamide] | 21.9 nM | 54 nM | >100 µM | 10 µM |  |  |  |  |
| CN(CCCNC(=O)CCc1c[nH]c2ccccc12)CCCNc1c2c(nc3ccccc13)CCCC2 [Compound 8, N-(3-{[3-(1,2,3,4-tetrahydro-acridin-9-ylamino)-propyl]-methyl-amino}-propyl)-3-(1H-indol-3-yl)propionamide] | 147 nM | 0.03 nM | >100 µM | 1000 µM | 17% |  |  |  |
| CN(CCCNC(=O)CCc1c[nH]c2ccccc12)CCCNc1c2c(nc3cc(Cl)ccc13)CCCC2 [Compound 9, N-(3-{[3-(6-chloro-1,2,3,4-tetrahydro-acridin-9-ylamino)-propyl]-methyl-amino}-propyl)-3-(1H-indol-3-yl)-propionamide] | 2.88 nM | 7.57 nM | >100 µM | 10 µM |  |  |  |  |
| O=C(NCCCCCNc1c2c(nc3cc(Cl)ccc13)CCCC2)c1c[nH]c2ccccc12 [Compound 10, 1H-Indole-3-carboxylic acid [5-(6-chloro-1,2,3,4-tetrahydro-acridin-9-ylamino)-pentyl]-amide] | 180 nM | 9.5 nM | >10 µM | 100 µM |  |  |  |  |
| O=C(NCCCCCCNc1c2c(nc3cc(Cl)ccc13)CCCC2)c1c[nH]c2ccccc12 [Compound 11, 1H-Indole-3-carboxylic acid [6-(6-chloro-1,2,3,4-tetrahydro-acridin-9-ylamino)-hexyl]-amide] | 33 nM | 1.7 nM | >10 µM | 100 µM |  |  |  |  |
| O=C(NCCCCCCCNc1c2c(nc3cc(Cl)ccc13)CCCC2)c1c[nH]c2ccccc12 [Compound 12, 1H-Indole-3-carboxylic acid [7-(6-chloro-1,2,3,4-tetrahydro-acridin-9-ylamino)-heptyl]-amide] | 36 nM | 19 nM | >10 µM | 100 µM |  |  |  |  |
| O=C(NCCCCCCCCNc1c2c(nc3cc(Cl)ccc13)CCCC2)c1c[nH]c2ccccc12 [Compound 13, 1H-Indole-3-carboxylic acid [8-(6-chloro-1,2,3,4-tetrahydro-acridin-9-ylamino)octyl]-amide] | 46 nM | 22.4 nM | >10 µM | 10 µM |  |  |  |  |
| O=C(CCCc1c[nH]c2ccccc12)NCCCCCCNc1c2c(nc3cc(Cl)ccc13)CCCC2 [Compound 16, N-[6-(6-Chloro-1,2,3,4-tetrahydro-acridin-9-ylamino)-hexyl]4-(1H-Indol-3-yl)-butyramide] | 0.48 nM | 5.6 nM | >10 µM | 100 µM |  |  |  |  |
| O=C(Cc1c[nH]c2ccc(Br)cc12)NCCCCCCCNc1c2c(nc3cc(Cl)ccc13)CCCC2 [Compound 18, 2-(5-Bromo-1H-indol-3-yl)-N-[7-(6-chloro-1,2,3,4-tetrahydro-acridin-9-ylamino)-heptyl]-acetamide] |  | 1.7 nM | >10 µM | 100 µM |  | 0.63 nM |  |  |
| O=C(NCCCCCCCNc1c2c(nc3cc(Cl)ccc13)CCCC2)c1n[nH]c2ccccc12 [Compound 21, 1H-Indazole-3-carboxylic acid [7-(6-chloro-1,2,3,4-tetrahydroacridin-9-ylamino)heptyl]-amide] | 95 nM | 79 nM | >10 µM | 100 µM |  |  |  |  |
| O=C(NCCCCCCNc1c2c(nc3cc(Cl)ccc13)CCCC2)OCCc1c[nH]c2ccccc12 [Compound 24, [6-(6-Chloro-1,2,3,4-tetrahydro-acridin-9-ylamino)-hexyl]-carbamic Acid 2-(1h-indol-3-yl)ethyl Ester] | 0.7 nM |  | >10 µM | 100 µM |  |  | 3.2 nM |  |
| CC[N+](C)(CC)CCC[n+]1c(-c2ccccc2)c2cc(N)ccc2c2ccc(N)cc21 [propidium iodide, reference compound] |  |  |  |  |  |  |  | 10% |
